Measurements from BindingDB's records for doi:10.1021/jm00041a005 (Agouron Pharmaceuticals, 1994).

biological target: T1, Dimer of Gag-Pol polyprotein [489-587] (Human immunodeficiency virus 1, UniProt P12497); experiment: Protease Inhibition Assay; details: pH 5.5; 37 °C
T1 construct: 489-587
Description: Protease activity was measured by continuous chromogenic assay. The chromogenic peptide His-Lys-Ala-Arg-Val-Leu- (p-NO2-Phe)-Glu-Ala-Nleu-Ser (Bachem) was used as a substrate. Reactions were followed by the decrease of absorbance at 300 nm measured by spectrophotometer. Experimental results were analyzed by the nonlinear regression analysis, using a mathematical model for tight binding inhibitors.

| SMILES | Ki |
| --- | --- |
| C[C@H](N)C(=O)N[C@@H](C)C(=O)N[C@@H](Cc1ccccc1)[C@@H](O)CCC(=O)NC(c1ccccc1)c1nc2ccccc2[nH]1 (stereo partly drawn) [5-(L-Alanyl-L-alanylamino)-4-hydroxy-phenylhexanoic Acid ((1H-BenzimiaazOl-2-yl)phenylmethyl)amide] | 5370 nM |
| NC(=O)C[C@H](NC(=O)c1ccc2ccccc2n1)C(=O)N[C@@H](Cc1ccccc1)[C@@H](O)CCC(=O)NC(c1ccccc1)c1nc2ccccc2[nH]1 (stereo partly drawn) [4-Hydroxy-5-( (N-2-quinaloyl-L-asparagyl)amino)-6-phenylhexanoic Acid (a-(2-benzyimidazolyl)benzyl)amide] | 480 nM |
| NC(=O)C[C@H](NC(=O)c1ccc2ccccc2n1)C(=O)N[C@@H](Cc1ccccc1)[C@@H](O)CCC(=O)NC(c1cc2ccccc2[nH]1)C1CCCCC1 (stereo partly drawn) [(2S)-N-[(2S,3S)-5-{[cyclohexyl(1H-indol-2-yl)methyl]carbamoyl}-3-hydroxy-1-phenylpentan-2-yl]-2-(quinolin-2-ylformamido)butanediamide] | 180 nM |
| Cc1cccc(C(NC(=O)CC[C@H](O)[C@H](Cc2ccccc2)NC(=O)[C@H](CC(N)=O)NC(=O)c2ccc3ccccc3n2)c2cc3ccccc3[nH]2)c1 (stereo partly drawn) [4-Hydroxy-5-((N-2-quinaloyl-L-asparagyl)amino)-6-phenylhexanoic Acid (a-(2-indolyl)-m-methylbenzyl)amide] | 39 nM |
| NC(=O)C[C@H](NC(=O)c1ccc2ccccc2n1)C(=O)N[C@@H](Cc1ccccc1)[C@@H](O)CCC(=O)NC(c1ccccc1)c1cc2ccccc2[nH]1 (stereo partly drawn) [(2S)-N-[(2S,3S)-3-hydroxy-5-{[1H-indol-2-yl(phenyl)methyl]carbamoyl}-1-phenylpentan-2-yl]-2-(quinolin-2-ylformamido)butanediamide] | 43 nM |
| COC(=O)[C@@H](NC(=O)[C@@H](NC(=O)CC[C@H](O)[C@H](Cc1ccccc1)NC(=O)[C@H](C)NC(=O)[C@H](C)N)C(C)C)C(C)C [methyl (2S)-2-[(2S)-2-[(4S,5S)-5-[(2S)-2-[(2S)-2-aminopropanamido]propanamido]-4-hydroxy-6-phenylhexanamido]-3-methylbutanamido]-3-methylbutanoate] | 18 nM |
| NC(=O)C[C@H](NC(=O)c1ccc2ccccc2n1)C(=O)N[C@@H](Cc1ccccc1)[C@@H](O)CCC(=O)NC(c1cccc(C(F)(F)F)c1)c1cc2ccccc2[nH]1 (stereo partly drawn) [(2S)-N-[(2S,3S)-3-hydroxy-5-({1H-indol-2-yl[3-(trifluoromethyl)phenyl]methyl}carbamoyl)-1-phenylpentan-2-yl]-2-(quinolin-2-ylformamido)butanediamide] | 33 nM |
| NC(=O)C[C@H](NC(=O)c1ccc2ccccc2n1)C(=O)N[C@@H](Cc1ccccc1)[C@@H](O)C[C@@H](Cc1ccccc1)C(=O)NC(c1ccccc1)c1cc2ccccc2[nH]1 (stereo partly drawn) [2 -Benzyl-4-h ydrox y-5((N -2-quinaloyl-L-asparagyl)amidno)-6-phenylhexanoic Acid (a-(2-indolylbenzyl)amide] | 1280 nM |
